Measurements reported in patent publication US9801922B2, “Compositions and methods of treating cancer” (UNIVERSITY OF IOWA RESEARCH FOUNDATION, priority 2011, dated 2017).
Like-named read-outs stand apart in the source and are kept apart here.

Tests used:
[1] = tested on: Hec50co human endometrial cancer cells; conditions: 2 uM, 24 hrs
Procedure: Hec50co human endometrial cancer cells were treated with 0.5 μM, 1.0 and 2.0 μM azido-decylTPP and bis-TPP and incubated for 24 hrs. DMSO was added to control dishes to a final concentration of 0.1%. Following a 24 hr. incubation period, cells were plated at densities of 200, 400, 600, 800, 2,000, 5,000, and 10,000 cells per dish and incubated for 2 weeks. After incubation, cells were stained with Coomassie blue and counted under a light microscope. Survival fraction was calculated by dividing the number of colonies counted following treatment by the product of the number of cells plated and plating efficiency. Error bars represent uncertainties of N=2 experiments.

MB231 cells = conditions: 24 hrs
Procedure: MB231 cells were treated with 0.5 μM, 1.0 μM, and 2.0 μM azido-decylTPP and bis-TPP and incubated for 24 hrs. DMSO was added to control dishes to a final concentration of 0.1%. Following a 24 hr. incubation period, cells were plated at densities of 200, 400, 600, 800, and 2,000 cells per dish and incubated for 2 weeks. After incubation, cells were stained with Coomassie blue and counted under a light microscope. Survival fraction was calculated by dividing the number of colonies counted following treatment by the product of the number of cells plated and plating efficiency.

A375 melanoma cells = test: MTT survival fraction analysis, A375; format: cell-based

[N-]=[N+]=NCCCCCCCCCC[P+](c1ccccc1)(c1ccccc1)c1ccccc1 [azido-DTPP, (10-azidodecyl)triphenylphosphonium] gave a survival fraction [1] of 24%, a survival fraction (MB231 cells; 0.5 uM) of 55% and a survival fraction (MB231 cells; 2 uM) of 10%.

With CCCCC[P+](c1ccccc1)(c1ccccc1)c1ccccc1 [pentyl-TPP] the “cytotoxicity in the absence of BSO, in words” value (A375 melanoma cells) was “no effect”, the survival fraction (A375 melanoma cells; in the presence of BSO, 2 μM) was 70% and the “cytotoxicity in the presence of BSO, in words” value (A375 melanoma cells; up to 2 μM) was “little cytotoxicity”.

With “decane-1,10-diylbis(triphenylphosphonium) [bis-DTPP]” the survival fraction [1] was 66%, the survival fraction (MB231 cells; 0.5 uM) was 90% and the survival fraction (MB231 cells; 2 uM) was 82%.
